31 molecules from US20260216294A1, “BETA 2-ADRENERGIC RECEPTOR AGONISTS FOR TREATMENT OR PREVENTION OF MUSCLE WASTING” (ATROGI AB, priority 2023, published 2026) can be followed below.

Assay [1] relates to L6-myotubes. The assay is described as follows: Glucose uptake in differentiated L6-myotubes (Biological Example 2). The following applies: for Emax at 10 µM: read-out: Biological example 2 (GU). Type of assay: cell-based. The method, then:
(§1) Compounds described in publications referenced and incorporated herein were screened in accordance with the procedures outlined in Biological example 2 and Biological example 3.
Differentiated L6-myotubes were serum-starved overnight in medium containing 0.5% fatty-acid free BSA and stimulated with isoprenaline or the test compound, with a final concentration of 1×10^−5 M. After 1 h 40 min the cells were washed with warm glucose free medium or PBS twice and another portion of agonist was added to the glucose free medium. After 20 min the cells were exposed to 50 nM ^3H-2-deoxyglucose for 10 min before washed with ice cold glucose free medium or PBS three times and lysed with 0.2 M NaOH, 400 μL/well, for 1 h at 60° C. The cell lysate was mixed with 4 mL scintillation buffer (Emulsifier Safe, Perkin Elmer) and the radioactivity was detected in a […] (Tri-Carb 4810TR, Perkin Elmer).

Assay [2] has as its system L6-myotubes. As to the kind of experiment: Measurement of intracellular cAMP levels in differentiated L6-myotubes (Biological Example 3). It counts as cell-based. The following applies: for Emax at 10 µM: 0.25 h. The method, then:
as §1
Differentiated L6-myotubes were serum-starved overnight and stimulated with isoprenaline or the test compound with a final concentration of 1×10^−5 M, for 15 min in stimulation buffer (HBSS supplemented with 1% BSA, 5 mM HEPES and 1 mM IBMX, pH 7.4). The medium was aspirated and 100 μL of 95% EtOH was added to each well of the 24-well plate and cells were kept at −20° C. overnight. The EtOH was allowed to evaporate and 500 μL of lysis buffer (1% BSA, 5 mM HEPES and 0.3% Tween-20, pH 7.4) was added to each well. The plate was kept at −80° C. for 30 min and then at −20° C. until the day of detection when the samples were thawed. Intracellular cAMP levels were detected using an alpha screen cAMP kit (6760635D from Perkin Elmer).

Setting [3] is: glucose uptake in differentiated L6-myotubes, compound at 10 μM, activity relative to isoproterenol at 10 μM.
Where [4] appears, read: intracellular cAMP in differentiated L6-myotubes, compound at 10 μM, activity relative to isoproterenol at 10 μM.
Setting [5] is: glucose uptake, compound at 10 μM relative to isoproterenol at 10 μM.
Where [6] appears, read: intracellular cAMP, compound at 10 μM relative to isoproterenol at 10 μM.

Where only a bound is given, the exact number is not on record here.

As for `O[C@@H](c1cccc(F)c1)C12CCC(CCc3cccnc3)(CC1)N2` [Compound 446, (R)-(m-fluorophenyl){4-[2-(3-pyridyl)ethyl]-7-azabicyclo[[2.2.1]]hept-1-yl}methanol], the “Biological example 2 (GU)” value with L6-myotubes [1] (setting [3]) is “+++ (If a compound at 10 μM shows activity of more than 75% of that of isoproterenol at 10 μM, the activity is denoted with +++)”. The “Biological example 3 (CAMP)” value with L6-myotubes [2] (setting [4]) is “++ (if it is between 75 and 50% it is denoted with ++)”.

Consider `CC(=O)N[C@H]1CC[C@@H](CNC[C@H](O)c2cncc(F)c2)CC1` [Compound 310], for which the Emax at 10 µM is 25 to 50% in the assay with L6-myotubes [1] (setting [3]) and less than 25% with L6-myotubes [2] (setting [4]).

Consider `Cc1ncccc1[C@@H](O)CNC(C)(C)C[C@H]1CC[C@@H](NS(C)(=O)=O)CC1` [Compound 437, (R)-2-{1,1-dimethyl-2-[(1s,4S)-4-(mesylamino)cyclohexyl]ethylamino}-1-(2-methyl-3-pyridyl)-1-ethanol], for which the Emax at 10 µM is 25 to 50% in the assay with L6-myotubes [1] (setting [3]) and less than 25% in the assay on L6-myotubes [2] (setting [4]).

As for `CCC[C@H]1CCC[C@H]([C@@H](O)c2ccccc2F)N1` [Compound 106, (S)-[(2R,6S)-6-propyl-2-piperidyl](o-fluorophenyl)methanol], the Emax at 10 µM with L6-myotubes [1] (setting [5]) was 25 to 50%; with L6-myotubes [2] (setting [6]) it was less than 25%.

With `O[C@@H](CNC[C@H]1CC[C@@H](OCc2ccccc2)CC1)c1cccc(F)c1` [Compound 262, (R)-1-(m-fluorophenyl)-2-({[(1s,4S)-4-(benzyloxy)cyclohexyl]methyl}amino)-1-ethanol], the Emax at 10 µM is 25 to 50% with L6-myotubes [1] (setting [3]) and less than 25% in the assay on L6-myotubes [2] (setting [4]).

Regarding `O[C@@H](CNCC[C@H]1CC[C@H](O)CC1)c1cccc(F)c1` [Compound 298, (R)-1-(m-fluorophenyl)-2-{2-[(1r,4R)-4-hydroxycyclohexyl]ethylamino}-1-ethanol], the Emax at 10 µM in the assay on L6-myotubes [1] (setting [3]) was 25 to 50%; in the assay with L6-myotubes [2] (setting [4]), less than 25%.

As for `COC(=O)[C@H]1CC[C@@H](C(C)(C)NC[C@H](O)c2cccc(F)c2)CC1` [Compound 328, (1S,4s)-8-[(R)-2-(m-fluorophenyl)-2-hydroxyethylamino]-7-methoxy-p-menthan-7-one], the values for the Emax at 10 µM in the assay on L6-myotubes [1] (setting [3]) and with L6-myotubes [2] (setting [4]) were greater than 75% and less than 25%, respectively.

As for `CS(=O)(=O)N[C@H]1CC[C@H](CNC[C@H](O)c2cncc(F)c2)CC1` [Compound 313], the Emax at 10 µM was 25 to 50% in the assay with L6-myotubes [1] (setting [3]) and less than 25% in the assay with L6-myotubes [2] (setting [4]).

Consider `CC(C)(C[C@H]1CC[C@@H](NC(=O)OC(C)(C)C)CC1)NC[C@H](O)c1cccc(C(F)(F)F)n1` [Compound 450, (1R,4s)-4-(2-{(S)-2-hydroxy-2-[6-(trifluoromethyl)-2-pyridyl]]ethylamino}-2-methylpropyl)cyclohexyl 2-methyl-2-propanecarbamate], for which the Emax at 10 µM with L6-myotubes [1] (setting [3]) and in the assay on L6-myotubes [2] (setting [4]) was less than 25% throughout.

For `CCC[C@@H]1CC[C@H]([C@@H](O)c2cccc(O)c2)N1` [Compound 127, m-{(S)-[(2R,5R)-5-propyl-2-pyrrolidinyl] hydroxymethyl}phenol], in the assay on L6-myotubes [1] (setting [5]), the “Biological example 2 (GU)” value was “+ (if it is between 50 and 25% it is denoted with +)”. In addition, in the assay with L6-myotubes [2] (setting [6]), the “Biological example 3 (CAMP)” value is “− (if it less than 25% it is denoted with −)”.

Turning to `CC12CC(C1)[C@H]([C@H](O)c1ccccc1F)N2` [Compound 210], the Emax at 10 µM with L6-myotubes [1] (setting [3]) and in the assay on L6-myotubes [2] (setting [4]) was greater than 75% each time.

As to `CC(C)(NC[C@H](O)c1cncc(F)c1)[C@H]1CC[C@H](OCc2ccccc2)CC1` [Compound 281, (R)-1-(5-fluoro-3-pyridyl)-2-{1-methyl-1-[(1r,4R)-4-(benzyloxy)cyclohexyl]ethylamino}-1-ethanol], the results for the Emax at 10 µM with L6-myotubes [1] (setting [3]) and in the assay with L6-myotubes [2] (setting [4]) were 50 to 75% and less than 25%, respectively.

With `CC(C)(NC[C@H](O)c1cncc(F)c1)[C@H]1CC[C@H](N)CC1` [Compound 344], the Emax at 10 µM in the assay on L6-myotubes [1] (setting [3]) and with L6-myotubes [2] (setting [4]) was less than 25% throughout.

Turning to `CCCCCCCCNCC(O)c1ccc(O)cc1` (centres unmarked) [Compound 18, 1-(p-hydroxyphenyl)-2-(octylamino)-1-ethanol], the Emax at 10 µM with L6-myotubes [1] (setting [5]) is 25 to 50%; in the assay with L6-myotubes [2] (setting [6]) it was less than 25%.

As for `CC12CCC([C@@H](O)c3ccncc3F)(CC1)N2` [Compound 253, (S)-(3-fluoro-4-pyridyl)(4-methyl-7-azabicyclo[[2.2.1]]hept-1-yl)methanol], the Emax at 10 µM in the assay on L6-myotubes [1] (setting [3]) and in the assay on L6-myotubes [2] (setting [4]) was less than 25% throughout.

Take `CC(C)(CC[C@H]1CC[C@@H](O)CC1)NC[C@H](O)c1cccc(F)c1` [Compound 295, (R)-2-{1,1-dimethyl-3-[(1s,4R)-4-hydroxycyclohexyl]propylamino}-1-(m-fluorophenyl)-1-ethanol]: the Emax at 10 µM is greater than 75% in the assay on L6-myotubes [1] (setting [3]) and less than 25% in the assay on L6-myotubes [2] (setting [4]).

With `CN(C)C(=O)N[C@H]1CC[C@H](CC(C)(C)NC[C@H](O)c2cccc(F)c2)CC1` [Compound 430, (R)-2-{1,1-dimethyl-2-[(1r,4R)-4-(3,3-dimethylureido)cyclohexyl]ethylamino}-1-(m-fluorophenyl)-1-ethanol], the Emax at 10 µM is greater than 75% with L6-myotubes [1] (setting [3]) and 50 to 75% in the assay with L6-myotubes [2] (setting [4]).

As to `CCC[C@@H]1CCCC[C@H]([C@H](O)c2cncc(F)c2)N1` [Compound 219, (R)-[(2R,7R)-7-propyl-2-azepanyl](5-fluoro-3-pyridyl)methanol], the Emax at 10 µM in the assay on L6-myotubes [1] (setting [3]) and in the assay with L6-myotubes [2] (setting [4]) was less than 25% each time.

In the case of `CC1(C)C[C@H]([C@@H](O)c2ccccc2F)N1` [Compound 203, (S)-[(R)-4,4-dimethyl-2-azetidinyl](o-fluorophenyl)methanol], the Emax at 10 µM in the assay on L6-myotubes [1] (setting [3]) is 25 to 50%; in the assay with L6-myotubes [2] (setting [4]) it was less than 25%.

Consider `CC(C)(C)NC[C@H](O)c1ccc(F)cn1` [Compound 96, (S)-2-(tert-butylamino)-1-(5-fluoro-2-pyridyl)-1-ethanol], for which the results for the Emax at 10 µM in the assay with L6-myotubes [1] (setting [5]) and in the assay with L6-myotubes [2] (setting [6]) were 50 to 75% and less than 25%, respectively.

Consider `CCOC(=O)CO[C@H]1CC[C@@H](C(C)(C)NC[C@H](O)c2cccc(F)c2)CC1` [Compound 407, ethyl[[(1S,4s)-4-{1-[(R)-2-(m-fluorophenyl)-2-hydroxyethylamino]-1-methylethyl}cyclohexyloxy]]acetate], for which the Emax at 10 µM was 50 to 75% with L6-myotubes [1] (setting [3]) and less than 25% in the assay on L6-myotubes [2] (setting [4]).

As for `CC(C)(C)NC[C@H](O)c1cccc(O)c1F` [Compound 86, (R)-2-(tert-butylamino)-1-(2-fluoro-3-hydroxyphenyl)-1-ethanol], the Emax at 10 µM in the assay with L6-myotubes [1] (setting [5]) and in the assay on L6-myotubes [2] (setting [6]) was 50 to 75% throughout.

In the case of `O[C@@H](c1cccc(F)c1)C12CCC(C/C=C/c3ccccc3)(CC1)N2` [Compound 533, (S)-{4-[(E)-3-phenyl-2-propenyl]-7-azabicyclo[[2.2.1]]hept-1-yl}(m-fluorophenyl)methanol], the Emax at 10 µM in the assay on L6-myotubes [1] (setting [3]) and in the assay on L6-myotubes [2] (setting [4]) was less than 25% in each case.

Consider `CC1(C)CC[C@H]([C@H](O)c2ccc(F)cc2)N1` [Compound 173], for which the Emax at 10 µM with L6-myotubes [1] (setting [5]) is 50 to 75%; with L6-myotubes [2] (setting [6]), less than 25%.

On to `CC(C)(CC[C@H]1CC[C@@H](O)CC1)NC[C@H](O)c1ccccc1F` [Compound 320, (R)-2-{1,1-dimethyl-3-[(1s,4R)-4-hydroxycyclohexyl]propylamino}-1-(o-fluorophenyl)-1-ethanol], for which the figures for the Emax at 10 µM in the assay with L6-myotubes [1] (setting [3]) and with L6-myotubes [2] (setting [4]) were greater than 75% and 25 to 50%, respectively.

On to `COc1ccc(C[C@@H]2CC[C@H]([C@@H](O)c3cncc(F)c3)N2)cc1` [Compound 377, (S)-{(2R,5S)-5-[(p-methoxyphenyl)methyl]-2-pyrrolidinyl}(5-fluoro-3-pyridyl)methanol], for which the figures for the Emax at 10 µM in the assay on L6-myotubes [1] (setting [3]) and in the assay on L6-myotubes [2] (setting [4]) were greater than 75% and less than 25%, respectively.

For `CCCC(C)(C)NC[C@H](O)c1cccc(F)c1` [Compound 61, (R)-2-(1,1-dimethylbutylamino)-1-(m-fluorophenyl)-1-ethanol], the Emax at 10 µM was greater than 75% with L6-myotubes [1] (setting [5]) and less than 25% in the assay with L6-myotubes [2] (setting [6]).

`O[C@H](c1cccc(F)c1)C12CCC(COCc3ccc(OC(F)(F)F)cc3)(CC1)N2` [Compound 488]: the Emax at 10 µM in the assay with L6-myotubes [1] (setting [3]) and in the assay on L6-myotubes [2] (setting [4]) was less than 25% each time.

Take `O=C(N[C@H]1CC[C@H](CNC[C@H](O)c2cncc(F)c2)CC1)c1ccccc1` [Compound 317]: the Emax at 10 µM in the assay on L6-myotubes [1] (setting [3]) was 50 to 75%; in the assay with L6-myotubes [2] (setting [4]) it was less than 25%.

For the molecule `CC1(C)CC[C@@H]([C@@H](O)c2cccc(F)c2)N1` [Compound 145, (S)-[(S)-5,5-dimethyl-2-pyrrolidinyl](m-fluorophenyl)methanol], the Emax at 10 µM is 25 to 50% in the assay with L6-myotubes [1] (setting [5]) and less than 25% in the assay with L6-myotubes [2] (setting [6]).

With `O[C@@H](CNCC[C@H]1CC[C@@H](O)CC1)c1cccc(F)c1` [Compound 297, (R)-1-(m-fluorophenyl)-2-{2-[(1s,4S)-4-hydroxycyclohexyl]ethylamino}-1-ethanol], the Emax at 10 µM is 50 to 75% in the assay on L6-myotubes [1] (setting [3]) and less than 25% with L6-myotubes [2] (setting [4]).
